Results as given in paper PMC10767396 (Advanced Science, 2023).

How the values were obtained:
[1] = Stability in human serum (HPLC); type: in vitro ADME; conditions: 37 °C
[2] = test system: BV2 cells; test: LDH cytotoxicity assay in BV2 cells; type: cell-based, murine
Procedure: (§1) Briefly, for microglia‐related amyloid (Aβ) phagocytosis study, BV2 cells were seeded in a 6‐well confocal dish (400k cells mL^−1) and cultured overnight for ≈90% confluency. […] Then, media were collected to perform the LDH assay for cell cytotoxicity assessment. Cells were washed carefully with PBS (2x) and lysed by adding 200 µL of MPER++ (10 mL MPER with 1% protease cocktail inhibitor and 1% EDTA) in each well. Cell lysates were collected in 1.5 mL Eppendorf tube and centrifuged at 12 000 rpm at 4 °C for 15 min and supernatants were collected for further studies. Total protein was quantified using the BCA protein assay kit (Pierce). Briefly, BV2 cells were cultured following previously published methods and grew in DMEM media containing 10% heat‐inactivated fetal bovine serum, 2 mM L‐Glutamine, and 1% penicillin/streptomycin (Life Technologies). […] Subsequently, media were collected and applied to LDH to assess cell viability; cells were extensively washed with PBS and were lysed in MPER lysis buffer (MPER++) supplemented with EDTA‐free protease inhibitors (Roche), Halt phosphatase inhibitor cocktail (Thermo Fisher Scientific). Lysates were centrifuged as before (12 000 rpm at 4 °C for 15 min) and supernatants were collected for further analysis. […]

[3] = test system: BV2 cells; test: Stereomicroscopic images of BV2 cell morphology; type: cell-based, murine
Source text: Stereomicroscopic images were captured before and after the treatment of different concentrations of PB118 on BV2 cells to elucidate the cytotoxicity based on the cellular morphology of BV2 cells by using Invitrogen EVOS XL Core stereo microscope.

[4] = test system: BV2 cells; test: Microglial Aβ phagocytosis, MSD Aβ peptide panel 1 (4G8); type: cell-based, murine; conditions: Aβ42 2 µg/mL + PB118 500 and 1000 nM, 6 h, vs control
Procedure: as §1

[5] = test system: BV2 cells; test: Western blot of PB118-treated BV2 cell lysates; type: cell-based, murine; conditions: PB118 500 and 1000 nM, 6 h
Procedure: The previously described WB method was implemented to perform and analyze western blot membrane.^[ [34] ^] […] Proteins were separated by the electrophoresis using the 4–12% Bis‐Tris SDS‐PAGE Gel System (Invitrogen, Thermo Fisher Scientific), followed by membrane transfer to PVDF membranes (Invitrogen, Thermo Fischer scientific). Next, the membranes were blocked for 30 min with the Superblock (Thermo Scientific) and then incubated overnight with primary antibodies following the dilutions mentioned below. The membranes were then washed with TBST (four times) and incubated with appropriate secondary antibodies (1:10 000 dilution) at room temperature for 2 h. Then, membranes were incubated with Supersignal West Femto (Life Technologies), and the images for immunoreactivity were developed and visualized by the LICOR Odyssey Fc. Quantifications of proteins of interest were performed by Image J software.

[6] = test system: BV2 cells; test: Immunocytochemistry (ICC) in BV2 cells; type: cell-based, murine
Procedure: ICC was performed following previously published articles.^[ [36] ^] Briefly, BV2 cells were seeded and grown overnight in a LabTek 8‐well chamber wells having ≈100 k cells well^−1. […] Discarded the media after 3 h, washed each well carefully with 150–300 µL of PBS (2x), and fixed with 4% PFA for 20 min at r.t. After that, washed each well again with 150–300 µL of PBS (2x) at r.t and incubated with blocking buffer (5% Donkey serum with 0.1% Triton‐X‐100 in PBS). Aspirate the blocking buffer and add 150 µL of primary antibody in each well and keep it at 4 °C for overnight shaking. Washed with washing buffer (PBS containing 0.1% Triton‐X‐100, 0.05% Tween‐20) twice and incubated with specific secondary antibody in each of the wells with gently shaking for 2 h at r.t. Discarded secondary solution and washed with washing buffer twice and incubated 10 min with 2 nM of Hoechst solution for another 10 min at r.t, washed with PBS (two times) and finally mounted with Prolong Gold antifade reagent, dried at r.t, and covered with a cover slip. Microscopic images were captured with these slides to understand the activity of HDAC6 toward tubulin/microtubule.

[7] = test system: BV2 cells; test: Cold depolymerization assay; type: cell-based, murine; conditions: PB118 500 nM 24 h, on ice 10 and 20 min in comparison to 0 min
Procedure: To perform this assay, BV2 cells were seeded and cultured in an 8‐well Labtek chamber slide for overnight (100 k well^−1). […] Then cells were incubated on ice to induce microtubule depolymerization and were fixed using 4% PFA at different time points (0, 10, and 20 min). After that, cells were washed with PBS three times and blocked with blocking buffer (5% Donkey serum with 0.1% Triton‐X‐100 in PBS) and immunostaining was performed with these fixed cells against α‐tubulin (green) and acetylated α‐tubulin (red) antibodies. Appropriate secondary antibodies were used for visualization of these cells and images were captured in a Nikon C2 confocal microscopy.

[8] = test system: LPS induced BV2 cells; test: Multiplex MSD-cytokine assay in LPS-induced BV2 cells; type: cell-based, murine; conditions: LPS 10 ng/mL + PB118 500/1000 nM, 24 h, media
Procedure: Briefly, for microglia‐related amyloid (Aβ) phagocytosis study, BV2 cells were seeded in a 6‐well confocal dish (400k cells mL^−1) and cultured overnight for ≈90% confluency. […] Then, media were collected to perform the LDH assay for cell cytotoxicity assessment. Cells were washed carefully with PBS (2x) and lysed by adding 200 µL of MPER++ (10 mL MPER with 1% protease cocktail inhibitor and 1% EDTA) in each well. Cell lysates were collected in 1.5 mL Eppendorf tube and centrifuged at 12 000 rpm at 4 °C for 15 min and supernatants were collected for further studies. Total protein was quantified using the BCA protein assay kit (Pierce). Briefly, BV2 cells were cultured following previously published methods and grew in DMEM media containing 10% heat‐inactivated fetal bovine serum, 2 mM L‐Glutamine, and 1% penicillin/streptomycin (Life Technologies). […] Subsequently, media were collected and applied to LDH to assess cell viability; cells were extensively washed with PBS and were lysed in MPER lysis buffer (MPER++) supplemented with EDTA‐free protease inhibitors (Roche), Halt phosphatase inhibitor cocktail (Thermo Fisher Scientific). Lysates were centrifuged as before (12 000 rpm at 4 °C for 15 min) and supernatants were collected for further analysis.
(§2) MSD immunoassays are quite robust and based on combining multiarray technology and electrochemiluminescence to identify numerous proteins in a single sample.

[9] = test system: 3D human neural stem cell model of AD (ReNcell VM); test: LDH assay in 3D human neural culture; type: cell-based; conditions: PB118 1 or 5 µM, 3 weeks
Procedure: Human precursor ReN cells were used to prepare 3D AD environment following previous work.^[ [30] ^] Briefly, for 3D layers of cells, BD Matrigel stock solution (BD Biosciences) was diluted with ReN cell differentiation medium (in 1:15 dilution) (chilled) followed by vertexing with the cell pellets for 20 s. A final cell concentration of ≈2 × 10^6 cells mL^−1 was used and this cell/ Matrigel mixtures were immediately transferred ([…] in each) into an Optilux clear bottom 96‐well plates (BD Biosciences). A thin layer ([…]) of 3D gels was formed at the bottom of the plates after incubating the plates at 37 °C for 1 h and the media were changed. For differentiation before drug treatment, 3D‐plated cells were cultured for 6 weeks, and the media were changed every 3–4 days. […] The cells were harvested for extraction using a lysis buffer mixture (Lysis 6 buffer with protease inhibitor; 1:100), followed by shaking for 1 h at cold room and centrifugation at 2 k rpm for 30 min. Supernatants were collected and further analyzed by MSD immunoassay kit and western blot analysis. The previously reported CytoTox‐ONE assay was performed to analyze cell viability by measuring the release of lactate dehydrogenase (LDH) following the manufacturer's guidelines (Promega; Madison, WI). Briefly, 50 µL of cell culture media was utilized and a 1:1 dilution of substrate was added. […]

[10] = test system: 3D human neural stem cell model of AD (ReNcell VM); test: MSD phospho (Thr231)/total tau and Aβ (6E10) assay in 3D-AD culture; type: cell-based; conditions: 3 weeks
Procedure: Human precursor ReN cells were used to prepare 3D AD environment following previous work.^[ [30] ^] Briefly, for 3D layers of cells, BD Matrigel stock solution (BD Biosciences) was diluted with ReN cell differentiation medium (in 1:15 dilution) (chilled) followed by vertexing with the cell pellets for 20 s. A final cell concentration of ≈2 × 10^6 cells mL^−1 was used and this cell/ Matrigel mixtures were immediately transferred ([…] in each) into an Optilux clear bottom 96‐well plates (BD Biosciences). A thin layer ([…]) of 3D gels was formed at the bottom of the plates after incubating the plates at 37 °C for 1 h and the media were changed. For differentiation before drug treatment, 3D‐plated cells were cultured for 6 weeks, and the media were changed every 3–4 days. […] The cells were harvested for extraction using a lysis buffer mixture (Lysis 6 buffer with protease inhibitor; 1:100), followed by shaking for 1 h at cold room and centrifugation at 2 k rpm for 30 min. Supernatants were collected and further analyzed by MSD immunoassay kit and western blot analysis.
as §2

[11] = test system: human microglia HMC3 cells; test: LDH assay and stereomicroscopy in HMC3 cells; type: cell-based; conditions: PB118 500 and 1000 nM, 6 h
Procedure: The previously reported CytoTox‐ONE assay was performed to analyze cell viability by measuring the release of lactate dehydrogenase (LDH) following the manufacturer's guidelines (Promega; Madison, WI). Briefly, 50 µL of cell culture media was utilized and a 1:1 dilution of substrate was added. […] Under the influence of the assay's substrate, resazurin was converted to resorufin, its fluorescent form, owing to LDH. The fluorometric results were used to compare the experiment group to the control group to assess the cytotoxicity of treated compounds.

[12] = test system: 46 CNS‐related targets; parameters: method as in PMID 36213537; conditions: cited from earlier work
[13] = parameters: method as in PMID 36213537; conditions: cited from earlier work
[14] = parameters: method as in PMID 36213537; conditions: human liver microsomes; cited from earlier work
[15] = parameters: method as in PMID 36213537; conditions: C57BL/6 mice, i.p. 1 mg kg^-1, blood and brain at 30 min, 1 and 4 h; cited from earlier work
[16] = target: HDAC6 enzyme; conditions: read-out: IC50 for HDAC6; enzyme inhibition assay; cited from earlier work
[17] = test system: HDAC1; conditions: read-out: IC50 for HDAC1; enzyme inhibition assay; cited from earlier work
[18] = higher concentration of PB118 (1 or 5 µM tested)

## O=C(NO)c1ccc(CN2CCCCc3ccccc32)c(F)c1 [PB118]
[1]
  decay constant in human serum: 6.3e-06 s⁻¹
  mean lifetime in human serum: 43.6 h
[1]; after 24 h, HPLC
  compound remaining in human serum: ≈ 57%
[1]; calculated by formula of Figure S2b
  half-life (t1/2) in human serum: 30.2 h
[1]; human, calculated by formula of Figure S2b, read-out: half-life (t1/2) in human serum (converted)
  half-life at 5 mM: ~30.2 h
[2]; LPS 10 ng/mL +/- PB118 500 or 1000 nM, 24 h, treated vs control
  cell viability (LDH assay): No significant difference
[2]; PB118 500 and 1000 nM with or without Aβ42 (2 µg/mL), 6 h
  cytotoxicity (LDH assay): no significant cytotoxicity
[3]; LPS +/- PB118, 24 h
  cell morphology (stereomicroscopic images): no significant difference of cell morphology
[3]; PB118 with or without Aβ42, 6 h
  cell morphology (microscopic images before and after treatment): no significant change in cell morphology
[4]
  Aβ42 levels in cell lysates (phagocytosis): significant increase
[5]
  HDAC6 expression (WB, normalized to β-actin): non‐significant change
[5]; vs control
  Ac-α-tubulin protein level (WB, normalized to α-tubulin): significant increase
[6]; LPS 10 ng/mL + PB118 500 nM
  HDAC6 expression (ICC): lack of significant change
  α-tubulin network (ICC): lack of significant change
[6]; PB118 500 nM with or without LPS 10 ng/mL
  acetylated tubulin levels (ICC) with or without LPS: no change
[6]; PB118 500 nM, 3 h, vs vehicle
  acetyl α-tubulin expression (ICC): higher compared to vehicle
[7]
  acetylated α-tubulin protein expression in cold depolymerization condition: significantly higher
[8]
  IL-12p-70 level: significant reductions
  KC/GRO (CXCL1) level: significant reductions
  interleukin-6 (IL-6) level: significant reductions
[9]
  cytotoxicity (LDH assay): no cytotoxicity
[10]; PB118 1 or 5 µM
  Aβ42 generation: significantly reduced
[10]; [18]
  p-tau (Thr231) level: significantly reduced
  total tau level: significantly reduced
[11]
  morphology and cytotoxicity (stereomicroscopy, LDH assay): no detrimental change in morphology or cytotoxicity
[12]
  off-target binding profile: good off‐target binding profile
[13]
  binding with human plasma: 99.4%
[14]
  half-life in human microsomal liver: 1.13 h
[15]
  BBB crossing (brain/plasma study): BBB crossing ability
[16]
  IC50: 0.0056 µM
[17]
  IC50: 7.82 µM
